Assay results: patent publication US20250206761A1, “HALOINDOLE MACROCYCLIC COMPOUNDS FOR THE TREATMENT OF CANCER” (Hoffmann-La Roche Inc., priority 2022, published 2025)

Experiments:
KRAS G12C-BRAF complex [1] = molecular target: T1, KRAS G12C-BRAF complex (Homo sapiens (Human), UniProt P01116+P62937, G12C); assay: KRAS G12C-BRAF NanoBit assay; format: cell-based; conditions: HEK293 cells, 3 hours of incubation
Method: This assay is to measure the ability of tested compounds in disruption of the KRAS G12C-BRAF complex at the cellular level, we established the NanoBit cellular assay in mammalian HEK293 (ATCC) cells.
HEK293 cells were grown and maintained using DMEM medium (Thermo Fisher Scientific) with 10% fetal bovine serum and 1% penicillin/streptomycin. Both KRAS G12C and BRAF RBD were cloned into the NanoBit vectors ([…] vectors system, Promega) with the orientations SnmBit-KRAS G12C and BRAF RBD-LgBit, respectively, and co-transfected into HEK293 cells. Cells were then selected with 100 μg/mL Hygromycin B (10687010, Thermo Fisher) and Blasticidin (5 μg/mL) for 4 weeks to get the stable cell pool.
On the day of the assay, 75 nL of compound solution was presented in a 384-well assay plate as a 16-point 3-fold dilution starting from a final concentration of 30 μM in DMSO. Then cells were seeded at 10,000 cells/25 μL/well in a 384-well plate. After 3 hours of incubation, 6 μL of volume of Nano-Glo® Live Cell Substrate (Promega) was added into each well. Monitor luminescence using ultra384 model in Envision at 20 minutes. Compounds that facilitate disruption of the KRAS G12C-BRAF RBD complex were identified as those eliciting a decrease of luminescence relative to DMSO control wells.

[2] = test system: phosphorylation of ERK, KRAS G12D in AGS cells; assay: pERK inhibition assay, KRAS G12D; format: cell-based, human; conditions: 4 hours
Procedure, shortened: (§1)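 In-cell ELISA of phospho-ERK (HRP/TMB, OD450) after formaldehyde fixation and methanol permeabilization; IC50 by 4-parameter sigmoidal fit. Compound incubation 4 h, 0.5% DMSO final, on overnight-attached NCJ-H358, AGS or SW620 cells seeded at 30,000, 20,000 and 30,000 per well.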

[3] = test system: phosphorylation of ERK, KRAS G12V in SW620; assay: pERK inhibition assay, KRAS G12V; format: cell-based, human
Procedure, shortened: as §1

SW620 (ATCC-CCL-227) = assay: Cell viability assay, G12V (SW620); format: cell-based, human; conditions: Homo sapiens, SW-620; KRAS cell viability, SW620, 72 hrs, Cell Counting Kit-8
Procedure, shortened: (§2)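 IC50 derived by 4-parameter sigmoidal fit of CCK-8 signal (OD450−OD650, 2 h development) after 72 h compound exposure in 0.5% DMSO. Seeding density was 5,000 cells/well for NCI-H358 and 2,000 cells/well for AGS and SW620, plated overnight before dosing.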

[4] = test system: AGS (ATCC-CRL-1739) cells; assay: Cell viability assay, G12D (AGS); format: cell-based, human; conditions: Homo sapiens, KRAS cell viability, 72 hrs, Cell Counting Kit-8
Procedure, shortened: as §2

[5] = test system: phosphorylation of ERK, KRAS G12C in NCJ-H358 cells; assay: pERK inhibition assay, KRAS G12C; format: cell-based, human; conditions: 4 hours
Procedure, shortened: as §1

[6] = test system: NCI-H358 (ATCC-CRL5807) cells; assay: Cell viability assay, G12C (NCI-H358); format: cell-based, human; conditions: Homo sapiens; KRAS cell viability, NCI-H358, 72 hrs, Cell Counting Kit-8
Procedure, shortened: as §2

[7] = molecular target: KRAS G12V binding to BRAF (Homo sapiens (Human), UniProt P01116+P62937, G12V); assay: KRAS-BRAF with CYPA (500 nM) interaction assay (TR-FRET), G12V; format: biochemical
Procedure, shortened: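 A TR-FRET assay measured how compound, in the presence of CYPA, disrupts binding of GMPPNP-loaded 6His-KRAS G12V to BRAF. The buffer contained 25 mM HEPES PH=7.4, 0.002% Tween20, 0.1% BSA, 100 mM NaCl, 5 mM MgCl2 and 10 μM GMPPNP. Compounds ran as a 16-point 3-fold dilution series from 10 μM for 3 hours.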

[8] = molecular target: KRAS G12D binding to BRAF (Homo sapiens (Human), UniProt P01116+P62937, G12D); assay: KRAS-BRAF with CYPA (500 nM) interaction assay (TR-FRET), G12D; format: biochemical
KRAS G12C-BRAF complex [9] = molecular target: T1, KRAS G12C-BRAF complex; assay: KRAS-BRAF with CYPA (500 nM) interaction assay (TR-FRET), G12C; format: biochemical
[10] = Homo sapiens, SW-620, SW620, 4 hours

T1 sequence (P01116-2 other isoform, or with tags, fused parts or gaps G12C): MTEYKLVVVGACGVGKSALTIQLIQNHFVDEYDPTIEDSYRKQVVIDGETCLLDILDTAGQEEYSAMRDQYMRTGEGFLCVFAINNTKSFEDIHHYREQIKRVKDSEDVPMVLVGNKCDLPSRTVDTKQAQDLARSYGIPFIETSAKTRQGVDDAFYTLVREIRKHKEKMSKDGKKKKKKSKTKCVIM
T1 sequence (P62937 whole entry): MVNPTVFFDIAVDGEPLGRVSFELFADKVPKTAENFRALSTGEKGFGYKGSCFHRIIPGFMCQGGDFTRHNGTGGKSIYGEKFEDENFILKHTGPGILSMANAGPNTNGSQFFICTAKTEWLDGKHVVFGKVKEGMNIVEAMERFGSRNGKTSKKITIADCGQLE
KRAS G12V binding to BRAF, sequence (P01116-2 other isoform, or with tags, fused parts or gaps G12V): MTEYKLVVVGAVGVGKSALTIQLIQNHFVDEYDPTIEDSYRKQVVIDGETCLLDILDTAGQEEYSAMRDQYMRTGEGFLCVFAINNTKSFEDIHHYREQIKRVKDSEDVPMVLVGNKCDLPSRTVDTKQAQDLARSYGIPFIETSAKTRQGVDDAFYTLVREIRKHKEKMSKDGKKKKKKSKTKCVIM
KRAS G12V binding to BRAF, sequence (P62937 whole entry): as the sequence (P62937 whole entry) above
KRAS G12D binding to BRAF, sequence (P01116-2 other isoform, or with tags, fused parts or gaps G12D): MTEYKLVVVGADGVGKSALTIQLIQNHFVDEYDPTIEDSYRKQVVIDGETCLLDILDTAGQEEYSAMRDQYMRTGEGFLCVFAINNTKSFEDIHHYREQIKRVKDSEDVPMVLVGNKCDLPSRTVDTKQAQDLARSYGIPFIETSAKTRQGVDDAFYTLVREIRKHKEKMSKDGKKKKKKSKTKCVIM
KRAS G12D binding to BRAF, sequence (P62937 whole entry): as the sequence (P62937 whole entry) above

| SMILES | IC50 (KRAS G12C-BRAF complex [1]) [nM] | IC50 ([2]; Homo sapiens) [nM] | IC50 [3, 10] [nM] | IC50 (SW620 (ATCC-CCL-227)) [nM] | IC50 [4] [nM] | IC50 ([5]; Homo sapiens) [nM] | IC50 [6] [nM] | IC50 [7] [nM] | IC50 [2] [nM] | IC50 ([3]; SW620, 4 hours) [nM] | IC50 [8] [nM] | IC50 (KRAS G12C-BRAF complex [9]) [nM] | IC50 [5] [nM] |
| --- | --- | --- | --- | --- | --- | --- | --- | --- | --- | --- | --- | --- | --- |
| CO[C@@H](C)c1ncc(N2CCOCC2)cc1-c1c2c3cc(c(F)cc3n1CC(F)(F)F)-c1csc(n1)C[C@H](NC(=O)[C@H](C(C)C)N1CCC3(CN(C(=O)[C@H](F)Cl)C3)C1=O)C(=O)N1CCC[C@H](N1)C(=O)OCC(C)(C)C2 (atropisomer, axis not shown; (M)) [Example 58, (2S)-2-[2-[(2R)-2-chloro-2-fluoro-acetyl]-5-oxo-2,6-diazaspiro[3.4]octan-6-yl]-N-[(7S,13S)-24-fluoro-(20M)-20-[2-[(1S)-1-methoxyethyl]-5-morpholino-3-pyridyl]-17,17-dimethyl-8,14-dioxo-21-(2,2,2-trifluoroethyl)-15-oxa-4-thia-9,21,27,28-tetrazapentacyclo[17.5.2.1^2,5.1^9,13.0^22,26]octacosa-1(25),2,5(28),19,22(26),23-hexaen-7-yl]-3-methyl-butanamide] | 54 | 124 | 41 | 130 | 1500 | 12 | 5 |  |  |  |  |  |  |
| CCn1c(-c2cc(N3CCN(C)CC3)cnc2[C@H](C)OC)c2c3cc(c(F)cc31)-c1csc(n1)C[C@H](NC(=O)[C@H](C(C)C)N1CCC[C@]3(CCN(C(=O)[C@@H](F)Cl)C3)C1=O)C(=O)N1CCC[C@H](N1)C(=O)OCC(C)(C)C2 [Example 22, (2S)-2-[(5R)-2-[(2S)-2-chloro-2-fluoro-acetyl]-6-oxo-2,7-diazaspiro[4.5]decan-7-yl]-N-[(7S,13S)-21-ethyl-24-fluoro-(20M)-20-[2-[(1S)-1-methoxyethyl]-5-(4-methylpiperazin-1-yl)-3-pyridyl]-17,17-dimethyl-8,14-dioxo-15-oxa-4-thia-9,21,27,28-tetrazapentacyclo[17.5.2.1^2,5.1^9,13.0^22,26]octacosa-1(25),2,5(28),19,22(26),23-hexaen-7-yl]-3-methyl-butanamide] | 209 |  |  |  |  |  |  | > 10000 | 1060 | 1020 | > 10000 | 199 | 53 |
| CO[C@@H](C)c1ncc(N2CCOCC2)cc1-c1c2c3cc(c(F)cc3n1CC(F)(F)F)-c1csc(n1)C[C@H](NC(=O)[C@H](C(C)C)N1CC[C@]3(CCN(C(=O)[C@H](F)Cl)C3)C1=O)C(=O)N1CCC[C@H](N1)C(=O)OCC(C)(C)C2 (atropisomer, axis not shown; (M)) [Example 57, (2S)-2-[(5S)-7-[(2R)-2-chloro-2-fluoro-acetyl]-1-oxo-2,7-diazaspiro[4.4]nonan-2-yl]-N-[(7S,13S)-24-fluoro-(20M)-20-[2-[(1S)-1-methoxyethyl]-5-morpholino-3-pyridyl]-17,17-dimethyl-8,14-dioxo-21-(2,2,2-trifluoroethyl)-15-oxa-4-thia-9,21,27,28-tetrazapentacyclo[17.5.2.1^2,5.1^9,13.0^22,26]octacosa-1(25),2,5(28),19,22(26),23-hexaen-7-yl]-3-methyl-butanamide] | 23 | 57 | 33 | 59 | 1300 | 6 | 3 |  |  |  |  |  |  |
| CO[C@@H](C)c1ncc(N2CCN(C)CC2)cc1-c1c2c3cc(c(F)cc3n1CC(F)(F)F)-c1csc(n1)C[C@H](NC(=O)[C@@H](COC1CN(C(=O)[C@H](F)Cl)C1)C(C)C)C(=O)N1CCC[C@H](N1)C(=O)OCC(C)(C)C2 (atropisomer, axis not shown; (M)) [Example 13, (2R)-2-[[1-[(2R)-2-chloro-2-fluoro-acetyl]azetidin-3-yl]oxymethyl]-N-[(7S,13S)-24-fluoro-(20M)-20-[2-[(1S)-1-methoxyethyl]-5-(4-methylpiperazin-1-yl)-3-pyridyl]-17,17-dimethyl-8,14-dioxo-21-(2,2,2-trifluoroethyl)-15-oxa-4-thia-9,21,27,28-tetrazapentacyclo-[17.5.2.1^2,5.1^9,13.0^22,26]octacosa-1(25),2,5(28),19,22(26),23-hexaen-7-yl]-3-methyl-butanamide] | 27 |  |  | 23 | 2390 |  | 2 |  |  |  |  |  |  |
| CCn1c(-c2cc(N3CCN(C)CC3)cnc2[C@H](C)OC)c2c3cc(c(F)cc31)-c1csc(n1)C[C@H](NC(=O)[C@H](C(C)C)N1CCC3(CN(C(=O)[C@H](F)Cl)C3)C1=O)C(=O)N1CCC[C@H](N1)C(=O)OCC(C)(C)C2 (atropisomer, axis not shown; (M)) [Example 29, (2S)-2-[2-[(2R)-2-chloro-2-fluoro-acetyl]-5-oxo-2,6-diazaspiro[3.4]octan-6-yl]-N-[(7S,13S)-21-ethyl-24-fluoro-(20M)-20-[2-[(1S)-1-methoxyethyl]-5-(4-methylpiperazin-1-yl)-3-pyridyl]-17,17-dimethyl-8,14-dioxo-15-oxa-4-thia-9,21,27,28-tetrazapentacyclo[17.5.2.1^2,5.1^9,13.0^22,26]octacosa-1(25),2,5(28),19,22(26),23-hexaen-7-yl]-3-methyl-butanamide] | 11000 | 12 | 45 | 447 | 1230 | 1 | < 1 |  |  |  |  |  |  |
| CO[C@@H](C)c1ncc(N2CCN(C)CC2)cc1-c1c2c3cc(c(F)cc3n1CC(F)(F)F)-c1csc(n1)C[C@H](NC(=O)[C@H](COC1CN(C(=O)[C@H](F)Cl)C1)C(C)C)C(=O)N1CCC[C@H](N1)C(=O)OCC(C)(C)C2 (atropisomer, axis not shown; (M)) [Example 14, (2S)-2-[[1-[(2R)-2-chloro-2-fluoro-acetyl]azetidin-3-yl]oxymethyl]-N-[(7S,13S)-24-fluoro-(20M)-20-[2-[(1S)-1-methoxyethyl]-5-(4-methylpiperazin-1-yl)-3-pyridyl]-17,17-dimethyl-8,14-dioxo-21-(2,2,2-trifluoroethyl)-15-oxa-4-thia-9,21,27,28-tetrazapentacyclo[17.5.2.1^2,5.1^9,13.0^22,26]octacosa-1(25),2,5(28),19,22(26),23-hexaen-7-yl]-3-methyl-butanamide] | 106 | 170 | 78 |  |  | 33 |  |  |  |  |  |  |  |
